Laboratory results published in paper PMC11862134 (Nature Communications, 2025).
Values belong to the molecule of their own block, whether it stands above or below them. No end group written: not given here.

Columns and labels:
[1] = system: BAM1 and BAM3 receptor; details: upon reaching the leaves, drought stress; cited from earlier work
[2] = biological target: GST-tagged TaCLV1-LRR (extracellular domains of TaCLV1, residues 58-668) (wheat (Triticum aestivum L.)); assay: MST

Molecule: CLE25: CLE25 peptide, messenger of water deficiency from roots to leaves (RKVPNGPDPIHN; ends and bridges not checked; UniProt Q8LFL4 58-69, looked up)
interaction with BAM1 and BAM3 receptor [1]: interacts with and activates BAM1 and BAM3 receptor

Kd [2]: 19.4 nM
B1: mature TaCLE24b peptide (peptide)
peptide: RLSPGGSNPQHH
